From PMC11693508, “Pharmacokinetics, bioavailability, and tissue distribution of MRTX1133 in rats using UHPLC-MS/MS” (Frontiers in Pharmacology, 2024)

Assay: Stability of MRTX1133 in rat plasma and tissue homogenates under different storage conditions
Assay type: physicochemical
Conditions: for Post-processing stability Accuracy / Short-term stability Accuracy / −80°C for 14 days Accuracy / Freeze-thaw stability Accuracy: n = 6; for −80°C for 14 days Accuracy: long-term; for Freeze-thaw stability Accuracy: three freeze-thaw cycles −20°C to 25°C
Procedure: The stability of MRTX1133 was determined by analyzing LQ, MQ, and HQ samples under different storage conditions, which included three freeze-thaw stability (from −20°C to 25°C), long-term stability (−80°C for 14 days), short-term stability (25°C for 6 h), and post-processing stability (4°C for 24 h). The samples concentrations were compared with the freshly prepared QC samples and were considered stable if the accuracy were 85%–115% and RSD were ±15%.

[1] = rat intestine homogenate, 4.22 ng/mL
[2] = rat intestine homogenate, 21.12 ng/mL
[3] = rat kidney homogenate, 21.12 ng/mL
[4] = rat kidney homogenate, 211.20 ng/mL
[5] = rat kidney homogenate, 1,056.00 ng/mL
[6] = rat liver homogenate, 21.12 ng/mL
[7] = rat liver homogenate, 211.20 ng/mL
[8] = rat liver homogenate, 2,112.00 ng/mL

C#Cc1c(F)ccc2cc(O)cc(-c3ncc4c(N5CC6CCC(C5)N6)nc(OC[C@@]56CCCN5C[C@H](F)C6)nc4c3F)c12 [MRTX1133]
stability in plasma samples and homogenates (25°C for 6 h, 4°C for 24 h, three freeze-thaw cycles (−20°C to 25°C), −80°C for 14 days): stable | Post-processing stability Accuracy (rat intestine homogenate, 4.22 ng/mL, 4°C for 24 h): 98.23% | Short-term stability Accuracy (rat intestine homogenate, 4.22 ng/mL, 25°C for 6 h): 95.41% | −80°C for 14 days Accuracy [1]: 93.31% | Freeze-thaw stability Accuracy [1]: 95.83% | Post-processing stability Accuracy (rat intestine homogenate, 21.12 ng/mL, 4°C for 24 h): 98.14% | Short-term stability Accuracy (rat intestine homogenate, 21.12 ng/mL, 25°C for 6 h): 96.69% | −80°C for 14 days Accuracy [2]: 92.54% | Freeze-thaw stability Accuracy [2]: 94.42% | Short-term stability Accuracy (rat intestine homogenate, 105.60 ng/mL, 25°C for 6 h): 94.97% | −80°C for 14 days Accuracy (rat intestine homogenate, 105.60 ng/mL): 90.35% | Post-processing stability Accuracy (rat kidney homogenate, 21.12 ng/mL, 4°C for 24 h): 101.18% | Short-term stability Accuracy (rat kidney homogenate, 21.12 ng/mL, 25°C for 6 h): 103.01% | −80°C for 14 days Accuracy [3]: 95.23% | Freeze-thaw stability Accuracy [3]: 95.07% | Post-processing stability Accuracy (rat kidney homogenate, 211.20 ng/mL, 4°C for 24 h): 98.13% | Short-term stability Accuracy (rat kidney homogenate, 211.20 ng/mL, 25°C for 6 h): 97.29% | −80°C for 14 days Accuracy [4]: 92.7% | Freeze-thaw stability Accuracy [4]: 95.58% | Post-processing stability Accuracy (rat kidney homogenate, 1,056.00 ng/mL, 4°C for 24 h): 95.47% | Short-term stability Accuracy (rat kidney homogenate, 1,056.00 ng/mL, 25°C for 6 h): 97.04% | −80°C for 14 days Accuracy [5]: 91.34% | Freeze-thaw stability Accuracy [5]: 93.72% | Post-processing stability Accuracy (rat liver homogenate, 21.12 ng/mL, 4°C for 24 h): 104.23% | Short-term stability Accuracy (rat liver homogenate, 21.12 ng/mL, 25°C for 6 h): 101.44% | −80°C for 14 days Accuracy [6]: 96.4% | Freeze-thaw stability Accuracy [6]: 97.72% | Post-processing stability Accuracy (rat liver homogenate, 211.20 ng/mL, 4°C for 24 h): 105.35% | Short-term stability Accuracy (rat liver homogenate, 211.20 ng/mL, 25°C for 6 h): 105.89% | −80°C for 14 days Accuracy [7]: 94.88% | Freeze-thaw stability Accuracy [7]: 96.69% | Post-processing stability Accuracy (rat liver homogenate, 2,112.00 ng/mL, 4°C for 24 h): 97.47% | Short-term stability Accuracy (rat liver homogenate, 2,112.00 ng/mL, 25°C for 6 h): 98.17% | −80°C for 14 days Accuracy [8]: 93.33% | Freeze-thaw stability Accuracy [8]: 92.38% | Post-processing stability Accuracy (rat plasma, 4.22 ng/mL, 4°C for 24 h): 107.16% | Short-term stability Accuracy (rat plasma, 4.22 ng/mL, 25°C for 6 h): 108.92% | −80°C for 14 days Accuracy (rat plasma, 4.22 ng/mL): 103.66% | Freeze-thaw stability Accuracy (rat plasma, 4.22 ng/mL): 101.64% | Post-processing stability Accuracy (rat plasma, 105.60 ng/mL, 4°C for 24 h): 94.98% | Short-term stability Accuracy (rat plasma, 105.60 ng/mL, 25°C for 6 h): 95.35% | −80°C for 14 days Accuracy (rat plasma, 105.60 ng/mL): 90.18% | Freeze-thaw stability Accuracy (rat plasma, 105.60 ng/mL): 92.05% | Post-processing stability Accuracy (rat plasma, 1,056.00 ng/mL, 4°C for 24 h): 92.05% | Short-term stability Accuracy (rat plasma, 1,056.00 ng/mL, 25°C for 6 h): 92.49% | −80°C for 14 days Accuracy (rat plasma, 1,056.00 ng/mL): 90.23% | Freeze-thaw stability Accuracy (rat plasma, 1,056.00 ng/mL): 90.04%
